Experimental data: PubChem BioAssay (NCI)
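1) Cells in 96-well plates. 2) Compound, 48 h, 5 concentrations. 3) Linear interpolation between surrounding doses. 4) Unreached endpoint = highest concentration. TGI: total growth inhibition.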

Legend:
Assay in all cases: NCI-60 cell line screen, 48 h
[1] = test system: UACC-257 melanoma
[2] = test system: MDA-N
[3] = test system: SK-OV-3 ovarian
[4] = test system: COLO 205 colon
[5] = test system: MCF7 breast
[6] = test system: HOP-62 NSCLC
[7] = test system: PC-3 prostate
[8] = test system: HCC-2998 colon
[9] = test system: HCT-15 colon
[10] = test system: MDA-MB-435
[11] = test system: T-47D breast
[12] = test system: HS 578T breast
[13] = test system: A549 NSCLC
[14] = test system: HL-60(TB) leukemia
[15] = test system: SK-MEL-5 melanoma
[16] = test system: HT29 colon
[17] = test system: LOX IMVI melanoma
[18] = test system: NCI-H460 lung
[19] = test system: OVCAR-8 ovarian
[20] = test system: SN12C renal
[21] = test system: UACC-62 melanoma
[22] = test system: NCI-H226 lung
[23] = test system: HCT-116 colon
[24] = test system: EKVX NSCLC
[25] = test system: CCRF-CEM leukemia
[26] = test system: OVCAR-5 ovarian
[27] = test system: RXF 393 renal
[28] = test system: OVCAR-4 ovarian
[29] = test system: ACHN renal
[30] = test system: OVCAR-3 ovarian
[31] = test system: NCI-H23 lung
[32] = test system: DU-145 prostate
[33] = test system: IGROV1 ovarian
[34] = test system: TK-10 renal
[35] = test system: SF-268 CNS
[36] = test system: RPMI-8226 leukemia
[37] = test system: SK-MEL-28 melanoma
[38] = test system: SF-539 CNS
[39] = test system: M14 melanoma
[40] = test system: NCI/ADR-RES ovarian
[41] = test system: CAKI-1 renal
[42] = test system: BT-549 breast
[43] = test system: K-562 leukemia
[44] = test system: MOLT-4 leukemia
[45] = test system: SR leukemia
[46] = test system: SW-620 colon
[47] = test system: A498 renal
[48] = test system: KM12 colon
[49] = test system: NCI-H522 lung
[50] = test system: MDA-MB-231 breast
[51] = test system: 786-0 renal
[52] = test system: SK-MEL-2 melanoma
[53] = test system: U251 CNS
[54] = test system: SF-295 CNS
[55] = test system: MALME-3M melanoma
[56] = test system: SNB-19 CNS
[57] = test system: UO-31 renal
[58] = test system: HOP-92 NSCLC

C[n+]1ccccc1/C=C/c1ccc2c(c1)OCO2
TGI [1]: > 10 µM | TGI [2]: > 10 µM | TGI [3]: > 10 µM | TGI [4]: > 10 µM | TGI [5]: > 10 µM | TGI [6]: > 10 µM | TGI [7]: > 10 µM | TGI [8]: > 10 µM | TGI [9]: > 10 µM | TGI [10]: > 10 µM | TGI [11]: > 10 µM | TGI [12]: > 10 µM | TGI [13]: > 10 µM | TGI [14]: > 10 µM | TGI [15]: > 10 µM | TGI [16]: > 10 µM | TGI [17]: > 10 µM | TGI [18]: > 10 µM | TGI [19]: > 10 µM | TGI [20]: > 10 µM | TGI [21]: > 10 µM | TGI [22]: > 10 µM | TGI [23]: > 10 µM | TGI [24]: > 10 µM | TGI [25]: > 10 µM | TGI [26]: > 10 µM | TGI [27]: > 10 µM | TGI [28]: > 10 µM | TGI [29]: > 10 µM | TGI [30]: > 10 µM | TGI [31]: > 10 µM | TGI [32]: > 10 µM | TGI [33]: > 10 µM | TGI [34]: > 10 µM | TGI [35]: > 10 µM | TGI [36]: > 10 µM | TGI [37]: > 10 µM | TGI [38]: > 10 µM | TGI [39]: > 10 µM | TGI [40]: > 10 µM | TGI [41]: > 10 µM | TGI [42]: > 10 µM | TGI [43]: > 10 µM | TGI [44]: > 10 µM | TGI [45]: > 10 µM | TGI [46]: > 10 µM | TGI [47]: > 10 µM | TGI [48]: > 10 µM | TGI [49]: > 10 µM | TGI [50]: > 10 µM | TGI [51]: > 10 µM | TGI [52]: > 10 µM | TGI [53]: > 10 µM | TGI [54]: > 10 µM | TGI [55]: > 10 µM | TGI [56]: > 10 µM

O=C1c2ccccc2C(=O)c2[nH]c(=O)c(/C=N/Nc3ccc([N+](=O)[O-])cc3)nc21
TGI [57]: > 48 µM | TGI [1]: 5.88 µM | TGI [2]: 2.63 µM | TGI [3]: > 47.3 µM | TGI [4]: 75.6 µM | TGI [5]: > 44 µM | TGI [6]: > 21.3 µM | TGI [7]: > 57.9 µM | TGI [8]: 4.78 µM | TGI [9]: > 38.8 µM | TGI [10]: 3.99 µM | TGI [11]: > 95 µM | TGI [12]: 21.1 µM | TGI [13]: > 100 µM | TGI [15]: 2.82 µM | TGI [58]: 38 µM | TGI [16]: > 21.5 µM | TGI [17]: > 39.2 µM | TGI [18]: 4.18 µM | TGI [19]: > 50.7 µM | TGI [20]: 37.2 µM | TGI [21]: 4.16 µM | TGI [22]: 4.45 µM | TGI [23]: > 73.1 µM | TGI [24]: > 73 µM | TGI [25]: > 100 µM | TGI [26]: > 76.5 µM | TGI [27]: 33.4 µM | TGI [28]: > 75.5 µM | TGI [29]: 45.4 µM | TGI [30]: > 25.3 µM | TGI [31]: 3.79 µM | TGI [32]: 2.88 µM | TGI [33]: > 48.8 µM | TGI [34]: 51.2 µM | TGI [35]: 29.6 µM | TGI [36]: > 61.2 µM | TGI [37]: > 30.5 µM | TGI [38]: 19.2 µM | TGI [39]: 5.01 µM | TGI [40]: > 61.6 µM | TGI [41]: > 75.2 µM | TGI [42]: 20.4 µM | TGI [43]: > 65.4 µM | TGI [44]: > 78.6 µM | TGI [45]: > 65.2 µM | TGI [46]: > 45.4 µM | TGI [47]: 14.2 µM | TGI [48]: > 100 µM | TGI [49]: 13 µM | TGI [50]: > 51.6 µM | TGI [51]: > 62.2 µM | TGI [52]: 12.1 µM | TGI [53]: > 37.6 µM | TGI [54]: 12.4 µM | TGI [55]: 2.78 µM | TGI [56]: > 100 µM
